Laboratory results from patent US6906093B2, “Indolinone combinatorial libraries and related products and methods for the treatment of disease” (Sugen, Inc., priority 1995, dated 2005).
Where two headings read alike, the source gives them in different places.

Legend:
[1] = target: T1, FLK-1 receptor (Mus musculus, UniProt P35918); test: FLK-1 ELISA in FLK-1/NIH3T3 cells; assay type: cell-based
T1 construct: expressed in transfected cells; host or cells: NIH3T3 C7 #3

[2] = tested on: HUV-EC-C cells; test: HUV-EC-C assay, VEGF-induced [3H]thymidine incorporation; assay type: cell-based, human; conditions: VEGF-stimulated HUV-EC cells, read-out: Mitogenesis in Endothelial Cells, [3H] Thymidine Incorporation, HUV-EC Assay, VEGF
Experimental: (§1) Repeat the wash two more times with D-PBS, resuspend the cells in about 1 ml assay medium/15 cm^2 of tissue culture flask.
(§2) Add cells to 96-well flat-bottom plates at 100 μl/well or 0.8-1.0×10^4 cells/well; incubate ˜24 h at 37° C., 5% CO2.
(§3) Use the same assay medium as mentioned in day 0, step 2 above. Titrations are made by adding 90 μl/well of drug at 200 μM (4× the final well concentration) to the top well of a particular plate column. Since the stock drug concentration-is usually 20 mM in DMSO, the 200 μM drug concentration contains 2% DMSO.
(§4) Therefore, diluent made up to 2% DMSO in assay medium (F12K+0.5% fetal bovine serum) is used as diluent for the drug titrations in order to dilute the drug but keep the DMSO concentration constant. Add this diluent to the remaining wells in the column at 60 μl/well. Take 60 μl from the 120 μl of 200 μM drug dilution in the top well of the column and mix with the 60 μl in the second well of the column. Take 60 μl from this well and mix with the 60 μl in the third well of the column, and so on until two-fold titrations-are completed. When the next-to-the-last well is mixed, take 60 μl of the 120 μl in this well and discard it. Leave the last well with 60 μl of DMSO/media diluent as a non-drug-containing control. […] 9 columns of titrated drug, enough for triplicate wells each for 1) VEGF (obtained from Pepro Tech Inc., catalogue no. 100-200, 2) endothelial cell growth factor (ECGF) (also known as acidic fibroblast growth factor, or aFGF) (obtained from Boehringer Mannheim Biochemica, catalogue no. […] ECGF comes as a preparation with sodium heparin.
(§5) Transfer 50 μl/well of the drug dilutions to the 96-well assay plates containing the 0.8-1.0×10^4 cells/100 μl/well of the HUV-EC-C cells from day 0 and incubate ˜2 h at 37° C., 5% CO2.
(§6) In triplicate, add 50 μl/well of 80 μg/ml VEGF, 20 ng/ml ECGF, or media control to each drug condition. As with the drugs, the growth factor concentrations are 4× the desired final concentration. Use the assay media from day 0 step 2 to make the concentrations of growth factors.
Freeze plates overnight at −20° C.

[3] = tested on: HUV-EC-C cells; test: HUV-EC-C assay, a-FGF (ECGF)-induced [3H]thymidine incorporation; assay type: cell-based, human; conditions: a-FGF-stimulated HUV-EC cells, read-out: Mitogenesis in Endothelial Cells, [3H] Thymidine Incorporation, HUV-EC Assay, a-FGF
Experimental: as §1, §2, §3, §4, §5, §6
Freeze plates overnight at −20° C.

[4] = target: T2, EGFR (Homo sapiens, UniProt P00533); test: EGF-Induced BrdU Incorporation Assay in 3T3/EGFR cells; assay type: cell-based; conditions: EGF ligand; read-out: Mitogenesis in 3T3/EGFR Cells, BrdU Incorporation, EGFR EGF Ligand IC50
T2 construct: expressed in transfected cells; host or cells: NIH 3T3/C7 (3T3/EGFRc7)
T2 sequence (P00533 25-1210): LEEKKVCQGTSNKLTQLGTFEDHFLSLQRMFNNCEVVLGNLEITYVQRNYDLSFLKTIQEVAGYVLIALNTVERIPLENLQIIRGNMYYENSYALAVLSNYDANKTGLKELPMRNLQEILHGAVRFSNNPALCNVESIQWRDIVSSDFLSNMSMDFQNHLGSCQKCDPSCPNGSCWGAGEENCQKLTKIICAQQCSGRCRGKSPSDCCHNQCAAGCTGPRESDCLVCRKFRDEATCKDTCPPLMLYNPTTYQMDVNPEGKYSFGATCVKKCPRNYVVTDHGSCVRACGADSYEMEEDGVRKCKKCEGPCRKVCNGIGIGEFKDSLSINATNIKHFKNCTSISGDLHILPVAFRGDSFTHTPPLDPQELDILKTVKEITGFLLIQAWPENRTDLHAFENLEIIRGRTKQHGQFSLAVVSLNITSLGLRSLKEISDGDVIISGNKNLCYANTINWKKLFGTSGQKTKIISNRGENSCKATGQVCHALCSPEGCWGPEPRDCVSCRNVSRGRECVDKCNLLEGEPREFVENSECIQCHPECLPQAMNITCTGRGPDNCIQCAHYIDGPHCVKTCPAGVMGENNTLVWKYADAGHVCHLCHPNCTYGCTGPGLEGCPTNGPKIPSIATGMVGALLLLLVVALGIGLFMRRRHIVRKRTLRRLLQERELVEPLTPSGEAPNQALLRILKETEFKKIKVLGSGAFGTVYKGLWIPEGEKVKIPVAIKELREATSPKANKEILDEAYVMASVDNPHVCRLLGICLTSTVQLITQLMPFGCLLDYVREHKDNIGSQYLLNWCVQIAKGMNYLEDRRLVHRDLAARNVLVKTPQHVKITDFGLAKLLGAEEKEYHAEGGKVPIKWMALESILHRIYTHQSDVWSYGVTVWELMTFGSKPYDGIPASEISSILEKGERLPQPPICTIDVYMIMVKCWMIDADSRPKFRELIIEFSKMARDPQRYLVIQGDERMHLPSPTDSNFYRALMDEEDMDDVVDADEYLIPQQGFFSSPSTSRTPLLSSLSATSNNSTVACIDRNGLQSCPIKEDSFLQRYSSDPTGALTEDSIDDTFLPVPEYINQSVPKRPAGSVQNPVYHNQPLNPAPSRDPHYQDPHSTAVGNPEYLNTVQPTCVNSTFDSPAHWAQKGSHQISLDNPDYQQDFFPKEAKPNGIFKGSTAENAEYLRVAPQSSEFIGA
Experimental: Assay 2: EGF-Induced BrdU Incorporation Assay
Protocol • (1) 3T3 engineered cell line: 3T3/EGFRc7 • (2) Cells are seeded at 8000 cells/well in 10% CS, 2 mM Gln in DMEM, in a 96 well plate. […] The negative control wells receive serum free DMEM with 0.1% BSA only; the positive control cells receive the ligand (EGF) but no test compound. […] FixDenat solution is added (50 μl/well) and the plates are incubated at room temperature for 45 minutes on a plate shaker. • (7) The FixDenat solution is thoroughly removed by decanting and tapping the inverted plate on a paper towel. Milk is added (5% dehydrated milk in PBS, 200 μl/well) as a blocking solution and the plate is incubated for 30 minutes at room temperature on a plate shaker. • (8) The blocking solution is removed by decanting and the wells are washed once with PBS. Anti-BrdU-POD solution (1:100 dilution in PBS, 1% BSA) is added (100 μl/well) and the plate is incubated for 90 minutes at room temperature on a plate shaker. • (9) The antibody conjugate is thoroughly removed by decanting and rinsing the wells 5 times with PBS, and the plate is dried by inverting and tapping on a paper towel. • (10) TMB substrate solution is added (100 μl/well) and incubated for 20 minutes at room temperature on a plate shaker until color development is sufficient for photometric detection. • (11) The absorbance of the samples are measured at 410 nm (in “dual wavelength” mode with a filter reading at 490 nm, as a reference wavelength) on a Dynatech ELISA plate reader.

[5] = ELISA, FLK-1/NIH3T3 cells, VEGF stimulated

T1 sequence (P35918 20-1345): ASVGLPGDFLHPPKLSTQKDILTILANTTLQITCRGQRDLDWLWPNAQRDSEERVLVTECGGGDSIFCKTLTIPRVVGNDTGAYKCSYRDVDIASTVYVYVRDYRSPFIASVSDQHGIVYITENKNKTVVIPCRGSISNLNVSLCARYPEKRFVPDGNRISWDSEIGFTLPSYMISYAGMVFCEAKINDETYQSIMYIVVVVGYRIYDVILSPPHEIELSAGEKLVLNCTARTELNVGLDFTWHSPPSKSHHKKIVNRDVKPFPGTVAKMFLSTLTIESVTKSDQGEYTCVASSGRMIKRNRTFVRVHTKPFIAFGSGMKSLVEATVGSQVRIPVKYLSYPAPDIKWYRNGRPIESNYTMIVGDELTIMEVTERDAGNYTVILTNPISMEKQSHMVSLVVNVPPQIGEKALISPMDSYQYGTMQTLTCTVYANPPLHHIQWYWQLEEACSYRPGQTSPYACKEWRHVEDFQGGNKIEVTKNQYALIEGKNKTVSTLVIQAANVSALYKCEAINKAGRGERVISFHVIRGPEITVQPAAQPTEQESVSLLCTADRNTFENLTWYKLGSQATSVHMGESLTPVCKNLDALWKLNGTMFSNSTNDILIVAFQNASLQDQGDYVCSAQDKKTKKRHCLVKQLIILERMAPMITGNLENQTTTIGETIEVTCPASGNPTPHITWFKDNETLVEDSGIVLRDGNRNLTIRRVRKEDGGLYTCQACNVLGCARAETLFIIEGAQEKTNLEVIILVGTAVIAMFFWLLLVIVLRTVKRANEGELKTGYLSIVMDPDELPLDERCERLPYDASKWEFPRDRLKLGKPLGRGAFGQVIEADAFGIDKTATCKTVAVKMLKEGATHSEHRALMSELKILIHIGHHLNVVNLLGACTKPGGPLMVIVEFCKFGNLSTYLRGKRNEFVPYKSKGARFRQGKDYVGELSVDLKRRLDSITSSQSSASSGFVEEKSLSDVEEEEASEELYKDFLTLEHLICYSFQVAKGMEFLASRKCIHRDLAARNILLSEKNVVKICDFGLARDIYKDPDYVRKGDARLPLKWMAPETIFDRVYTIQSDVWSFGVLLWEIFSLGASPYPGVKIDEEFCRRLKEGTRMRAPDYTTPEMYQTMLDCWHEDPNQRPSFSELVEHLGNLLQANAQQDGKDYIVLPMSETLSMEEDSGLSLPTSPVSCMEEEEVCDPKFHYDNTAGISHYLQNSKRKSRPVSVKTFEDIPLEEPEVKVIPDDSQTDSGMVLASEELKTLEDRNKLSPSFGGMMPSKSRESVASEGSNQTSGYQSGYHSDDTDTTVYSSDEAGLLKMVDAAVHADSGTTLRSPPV

| Compound | IC50 [1, 5] [µM] | other results |
| --- | --- | --- |
| 3-[(2-Sulphonylfuran-5-yl)methylene]-2-indolinone sodium salt [SU5428] | – | IC50 [1]: 8.6 µM |
| CN(C)c1ccc(C=C2C(=O)Nc3ccccc32)cc1 [SU4312, 3-(4-Dimethylaminobenzylidenyl)-2-indolinone] | 0.8 | – |
| COc1ccc(OC)c(C=C2C(=O)Nc3ccccc32)c1 [SU4793, 3-(2,5-Dimethoxybenzylidenyl)-2-indolinone] | 4.2 | – |
| COc1cccc(C=C2C(=O)Nc3ccccc32)c1OC [SU4794, 3-(2,3-dimethoxybenzylidenyl)-2-indolinone] | 11.8 | – |
| COc1ccc(Br)cc1C=C1C(=O)Nc2ccccc21 [SU4796, 3-(3-bromo-6-methoxybenzylidenyl)-2-indolinone] | – | IC50 [2]: 30700 nM; IC50 [3]: 35.8 µM |
| O=C1Nc2ccccc2C1=Cc1ccco1 [SU4798, 3-[(furan-2-yl)methylene]-2-indolinone] | 28.8 | – |
| CC(=O)Nc1ccc(C=C2C(=O)Nc3ccccc32)cc1 [SU4799, 3-(4-acetamidobenzylidenyl)-2-indolinone] | 9 | – |
| O=C1Nc2ccccc2C1=Cc1ccc(O)cc1Cl [SU4932, 3-(2-chloro-4-hydroxybenzylidenyl)-2-indolinone] | 2.2 | – |
| CC(=O)Nc1ccc(C=C2C(=O)Nc3ccccc32)cc1 [SU4944, 3-(4-Acetylaminobenzylidenyl)-2-indolinone] | 8.5 | – |
| COc1ccccc1C=C1C(=O)Nc2ccccc21 [SU4949, 3-(2-Methoxybenzylidenyl)-2-indolinone] | – | IC50 [2]: 3400 nM; IC50 [3]: 3.7 µM |
| CN(C)c1ccc(C=C2C(=O)N(C)c3ccccc32)cc1 [SU4952, 3-(4-Dimethylaminobenzylidenyl)-1-methyl-2-indolinone] | 22.6 | – |
| CN(C)c1ccc(C=C2C(=O)Nc3ccc(Cl)cc32)cc1 [SU4967, 5-Chloro-3-(4-dimethylaminobenzylidenyl)-2-indolinone] | 11.2 | IC50 [4]: 60 µM |
| O=C1Nc2ccc(Cl)cc2C1=Cc1ccc(Br)cc1 [SU4972, 3-(4-Bromobenzylidenyl)-5-chloro-2-indolinone] | – | IC50 [3]: 1.4 µM |
| CCCCN(CCCC)c1ccc(C=C2C(=O)Nc3ccccc32)cc1 [SU4979, 3-(4-Di-n-butylaminobenzylidenyl)-2-indolinone] | 20.9 | – |
| O=C1Nc2ccccc2C1=Cc1ccc(N2CCOCC2)cc1 [SU4981, 3-[4-(Morpholin-4-yl)benzylidenyl]-2-indolinone] | 2.1 | IC50 [4]: 20 µM |
| O=C1Nc2ccc(Cl)cc2C1=Cc1ccc(N2CCOCC2)cc1 [SU4983, 5-Chloro-3-(4-(morpholine-4-yl)benzylidenyl)-2-indolinone] | 4.1 | – |
| O=C1Nc2ccccc2C1=Cc1ccc(Cl)c(Cl)c1 [SU5201, 3-(3,4-Dichlorobenzylidenyl)-2-indolinone] | – | IC50 [2]: 2500 nM; IC50 [3]: 2.3 µM |
| CCOc1ccccc1C=C1C(=O)Nc2ccccc21 [SU5204, 3-(2-Ethoxybenzylidenyl]-2-indolinone] | 4 | – |
| O=C1Nc2ccccc2C1=Cc1ccc(F)cc1 [SU5205, 3-(4-Fluorobenzylidenyl)-2-indolinone] | 9.6 | – |
| O=C1Nc2ccccc2C1=Cc1cccs1 [SU5208, 3-[(Thien-2-yl)methylene]-2-indolinone] | 4.7 | – |
| O=C1Nc2ccccc2C1=Cc1ccc(-c2cc(C(F)(F)F)cc(C(F)(F)F)c2)o1 [SU5217] | – | IC50 [2]: 9600 nM; IC50 [3]: 10.5 µM |
| CN(C)c1c(C=C2C(=O)Nc3ccccc32)cc(C=C2C(=O)Nc3ccccc32)c(N(C)C)c1C#N [SU5218, 2,6-Di-(dimethylamino)-3,5-di-[(indolin-2-one-3-ylidenyl)methyl]-phenylcyanide] | 6.4 | IC50 ([2]; Homo sapiens, HUVEC): 2400 nM; IC50 ([3]; Homo sapiens, HUVEC): 2.7 µM |
| Cc1csc(C=C2C(=O)Nc3ccccc32)c1 [SU5401, 3-[(4-Methylthien-2-yl)methylene]-2-indolinone] | 2.9 | – |
| Cc1c(CCC(=O)O)c[nH]c1C=C1C(=O)Nc2ccccc21 [SU5402, 3-[(3-(2-carboxyethyl)-4-methylpyrrol-5-yl)methylene]-2-indolinone] | 0.4 | – |
| Cc1[nH]c(C=C2C(=O)Nc3ccccc32)c(Br)c1Br [SU5403, 3-[(3,4-Dibromo-5-methylpyrrol-2-yl)methylene]-2-indolinone] | 1.8 | – |
| Cc1cc[nH]c1C=C1C(=O)Nc2ccccc21 [SU5404, 3-[(3-Methylpyrrol-2-yl)methylene]-2-indolinone] | 0.24 | – |
| Cc1c(C=O)[nH]c(C=C2C(=O)Nc3ccccc32)c1C [SU5405, 3-[(3,4-Dimethyl-2-formylpyrrole-5-yl)methylene)-2-indolinone] | 23.8 | – |

| Compound | IC50 [1, 5] [µM] | other results |
| --- | --- | --- |
| Cc1c[nH]c(C=C2C(=O)Nc3ccccc32)c1C [SU5406, 3-[(3,4-Dimethylpyrrol-2-yl)methylene]-2-indolinone] | 0.17 | – |
| COC(=O)CCc1c(C)c[nH]c1C=C1C(=O)Nc2ccccc21 [SU5407, 3-{[4-(2-methoxycarbonylethyl)-3-methylpyrrol-5-yl]methylene}-2-indolinone] | 1.1 | IC50 [4]: 100 µM |
| CCOC(=O)c1c(C)[nH]c(C=C2C(=O)Nc3ccccc32)c1C [SU5408, 3-[(2,4-Dimethyl-3-ethoxycarbonylpyrrol-5-yl)methylene]-2-indolinone] | 0.07 | – |
| O=C1Nc2ccccc2C1=Cc1ccc(I)o1 [SU5409] | – | IC50 [2]: 26000 nM |
| O=C1Nc2ccccc2C1=Cc1sccc1Br [SU5418, 3-[(3-Bromothiene-2-yl)methylene]-2-indolinone] | 15.4 | – |
| CSc1ccc(C=C2C(=O)Nc3ccccc32)s1 [SU5419, 3-[(2-Methylmercaptothien-5-yl)methylene]-2-indolinone] | 2.3 | – |
| Cc1cc(C=C2C(=O)Nc3ccccc32)oc1C [SU5421, 3-[(2,3-Dimethylfuran-5-yl)methylene]-2-indolinone] | 4.6 | – |
| Cc1ccc(C=C2C(=O)Nc3ccccc32)s1 [SU5424, 3-[(2-Methylthien-5-yl)methylene]-2-indolinone] | 2.4 | – |
| O=C1Nc2ccccc2C1=Cc1ccc(Br)s1 [SU5425, 3-[(2-Bromothiene-5-yl)methylene]-2-indolinone] | 51.4 | – |
| Cc1ccsc1C=C1C(=O)Nc2ccccc21 [SU5427, 3-[(3-Methylthien-2-yl)methylene]-2-indolinone] | 4.5 | – |
| Cc1ccc(C=C2C(=O)Nc3ccccc32)o1 [SU5430, 3-[(2-Methylfuran-5-yl)methylene]-2-indolinone] | 73.4 | – |
| CCc1ccc(C=C2C(=O)Nc3ccccc32)o1 [SU5431] | 41.2 | – |
| O=C1Nc2ccccc2C1=Cc1ccc([N+](=O)[O-])o1 [SU5432, 3-[(2-Nitrofuran-5-yl)methylene]-2-indolinone] | 22.8 | – |
| CCc1c(C=C2C(=O)Nc3ccccc32)[nH]c(C)c1C [SU5453, 3-[(4,5-Dimethyl-3-ethylpyrrol-2-yl)methylene]-2-indolinone] | 0.14 | – |
| CCc1c(C=C2C(=O)Nc3ccccc32)[nH]c(C(=O)O)c1C [SU5455, 3-[(5-Carboxy-3-ethyl-4-methylpyrrol-2-yl)methylene]-2-indolinone] | 36.2 | – |
| O=C1Nc2ccccc2C1=Cc1cccn1-c1ccc(Cl)cc1 [SU5462] | – | IC50 [2]: 500 nM; IC50 [3]: 0.8 µM |
| CCOC(=O)c1c[nH]c(C=C2C(=O)Nc3ccccc32)c1C [SU5463] | 0.18 | IC50 [4]: 23 µM |
| Cn1cccc1C=C1C(=O)Nc2ccccc21 [SU5464, 3-[(1-Methylpyrrol-2-yl)methylene]-2-indolinone] | 20.3 | IC50 [4]: 95 µM |
| CCOC(=O)CCc1c(C=C2C(=O)Nc3ccccc32)[nH]c(C(=O)OCC)c1CC(=O)OCC [SU5465, 3-[(5-Ethoxycarbonyl-3-ethoxycarbonylethyl-4-ethoxylcarbonylmethylpyrrol-2-yl)methylene]-2-indolinone] | – | IC50 [4]: 50 µM |
| O=C1Nc2ccccc2C1=Cc1ccc(N2CCCC2)cc1 [SU5466, 3-[4-(Pyrrolidin-1-yl)benzylidenyl]-2-indolinone] | 1.6 | IC50 [4]: 17 µM |
| Cc1cnc(C=C2C(=O)Nc3ccccc32)[nH]1 [SU5468, 3-[(5-Methylimidazol-2-yl)methylene]-2-indolinone] | 2.7 | – |
| Cc1cnc(C=C2C(=O)Nc3ccccc32)s1 [SU5469, 3-[(5-Methylthiazol-2-yl)methylene]-2-indolinone] | – | IC50 [4]: 28 µM |
| Cc1cc(C=C2C(=O)Nc3ccccc32)[nH]n1 [SU5472, 3-[(3-Methylpyrazol-5-yl)methylene]-2-indolinone] | 8.7 | – |
| O=C1Nc2ccccc2C1=Cc1cnc[nH]1 [SU5473, 3-[(Imidazol-4-yl)methylene]-2-indolinone] | 1.5 | IC50 ([2]; Homo sapiens, HUVEC): 1200 nM; IC50 ([3]; Homo sapiens, HUVEC): 14.1 µM; IC50 [4]: 54 µM |
| O=C1Nc2ccccc2C1=Cc1n[nH]cc1Cl [SU5474, 3-[(4-Chloropyrazol-3-yl)methylene]-2-indolinone] | 7.4 | – |
| O=C1Nc2ccccc2C1=Cc1c(Br)cnn1Cc1ccc(Cl)cc1 [SU5475, 3-[(4-Bromo-1-(4-chlorobenzyl)pyrazol-5-yl)methylene]-2-indolinone] | – | IC50 [4]: 48 µM |
| CCc1c(C)[nH]c(C=C2C(=O)Nc3ccccc32)c1C [SU5477, 3-[(4-Ethyl-3,5-dimethylpyrrol-2-yl)methylene]-2-indolinone] | 0.15 | – |
